According to patent US9023858B2, “Substituted pyrido[2,3-d]pyrimidines as delta-5-desaturase inhibitors” (Takeda Pharmaceutical Company Limited, priority 2010, dated 2015):

Legend:
delta-5-desaturase [1] = molecular target: T1, delta-5-desaturase (Homo sapiens, UniProt O60427); experiment: Delta-5-desaturase inhibitory activity using HepG2 cell; format: cell-based; settings: test compound 1 μM
T1 construct: endogenous in cells; host or cells: HepG2
Procedure: Delta-5-Desaturase Inhibitory Activity Using HepG2 Cell
HepG2 was plated on a 96-well plate at 1×10^5 cells/well, and cultured overnight in DMEM (Dulbecco's modified Eagle medium) containing 10% FBS (fetal bovine serum). After washing (200 μL×2) with PBS (phosphate buffered saline), 40 μL of a reaction medium (DMEM, penicillin/streptomycin, 0.3% BSA) containing the test compound was added, and the mixture was preincubated in a CO2 incubator at 37° C. for 30 min. The reaction was started by adding a reaction medium (20 μL) containing 0.1 μCi [^14C]Eicosatrienoic acid, and the mixture was incubated in a CO2 incubator at 37° C. Incubation was performed for 3 hr, the cells were washed twice with 200 μL of PBS, detached with 50 μL of trypsin-EDTA and placed on a 96-deep well block. Furthermore, 20 μL of 2.5N NaOH was added, the plate was sealed and incubated overnight at 55° C. to allow saponification. The fatty acid extraction included acidifying with 10 μL of formic acid, adding chloroform:methanol (1:4), stirring, and further adding 200 μL of pure water to separate into two layers. The operation after development with TLC followed the method of detection system using TLC in a system using a rat liver microsome. A delta-5-desaturase inhibitory rate (%) of 1 μM test compound was determined.

delta-5-desaturase [2] = molecular target: T2, delta-5-desaturase (Rattus norvegicus, UniProt Q920R3); experiment: Delta-5-desaturase inhibitory activity using rat liver microsome; format: biochemical; settings: test compound 10 μM
T2 construct: a rat liver microsome fraction (10 μl) diluted to 3 mg/ml with a microsome buffer; from tissue; host or cells: rat liver microsome fraction
Procedure: Delta-5-Desaturase Inhibitory Activity Using Rat Liver Microsome
The inhibitory activity of the test compound on delta-5-desaturase was measured by the method described below. To a solution of the test compound in DMSO prepared in advance was secondarily diluted with a buffer (300 mM NaH2PO4 [pH 7.4], 450 mM KCl, 30 mM NaF, 9 mM MgCl2, 4.5 mM glutathione [reduced form], 0.3% BSA [fatty acid free, SIGMA]) to give an assay buffer. The assay buffer (10 μl) was dispensed to a polypropylene deep 96-well block, and a rat liver microsome fraction (10 μl) diluted to 3 mg/ml with a microsome buffer (10 mM Tris-HCl [pH 7.4], 1 mM EDTA, 250 mM sucrose) was added. The enzyme reaction was started by adding 9 mM NADH, 9 mM ATP, 0.9 mM CoA, 10 μCi/ml (8E,11E,14E)-(1-^14C)eicosa-8,11,14-trienoic acid (PerkinElmer Inc.) (10 μl). The enzyme reaction was performed for 120 min at room temperature, and discontinued by the addition of 10 μl of 2.5M NaOH. After discontinuation of the reaction, the plate was sealed and incubated overnight at 55° C. to allow saponification. The fatty acid was extracted with solvent based on the Bligh & Dyer method described in Can. J. Biochem. Physiol., vol. 37, page 911 (1959) by adding formic acid:methanol:chloroform (1:6:3) (200 μl), maintaining the single layer state, sufficiently stirring the mixture and adding pure water (120 μl) for separation into two layers. The lower chloroform layer (10 μl) was spotted on a reversed-phase TLC plate (RP-18, 1154230001, Merck Japan, Ltd.), developed with acetonitrile:pure water:acetic acid (95:4.5:0.5), and the dried TLC plate was transcribed on Imaging Plate (Fuji Photo Film Co., Ltd.) for 5 hr or longer. The detection was performed using BAS-5000 (Fuji Photo Film Co., Ltd.), and the obtained spot image was numerically converted by Multi Gauge Ver2.3 (Fuji Photo Film Co., Ltd.) and a delta-5-desaturase inhibitory rate (%) of 10 μM test compound was determined.

delta-5-desaturase [3] = molecular target: T2, delta-5-desaturase; experiment: Inhibitory activity on binding of [3H]-labelled Reference Example 1 ligand to delta-5-desaturase (rat liver microsome fraction); settings: test compound 10 μM, 3 nM tritiated ligand of Reference Example 1, read-out: Binding inhibitory activity against compound bind to delta-5-desaturase Binding inhibition rate (%) at 10 μM
Procedure: Inhibitory Activity on Binding of N-[2-({4-oxo-3-[4-(2,2,2-trifluoroethoxy)[2,6-^3H2]phenyl]-3,4-dihydrothieno[3,4-d]pyrimidin-2-yl}sulfanyl)ethyl]acetamide (Reference Example 1) to delta-5-desaturase)
All tests were performed at room temperature at 200 μL/well. A rat liver microsome fraction (30 μg/well) was preincubated with a test compound at a final concentration of 10 μM for 15 min in an assay buffer (10 mM Tris-HCl (pH 7.5), 100 mM KCl, 10 mM NaF, 3 mM MgCl2, 0.005% Tween20 and 1 mM GSH). N-[2-({4-oxo-3-[4-(2,2,2-trifluoroethoxy) [2,6-^3H2]phenyl]-3,4-dihydrothieno[3,4-d]pyrimidin-2-yl}sulfanyl)ethyl]acetamide was added to a final concentration of 3 nM and the mixture was incubated for 150 min. For Bound/Free separation, the membrane fraction was added on a GF/C glass filter using a cell harvester. The GF/C glass filter was washed 5 times with 300 μl of ice-cooled assay buffer (without 0.005% Tween) to separate the ligand bound to delta-5-desaturase. 50 μl of MicroScinti 0 was added, and the radioactivity on the filter was measured by TopCount. To evaluate non-specific binding, 10 μM N-[2-({4-oxo-3-[4-(2,2,2-trifluoroethoxy)phenyl]-3,4-dihydrothieno[3,4-d]pyrimidin-2-yl}sulfanyl)ethyl]acetamide was used. The inhibitory rate (%) of the test compound (10 μM) on the binding of N-[2-({4-oxo-3-[4-(2,2,2-trifluoroethoxy) [2,6-^3H2]phenyl]-3,4-dihydrothieno[3,4-d]pyrimidin-2-yl}sulfanyl)ethyl]acetamide to delta-5-desaturase was determined.

T1 sequence (O60427 whole entry): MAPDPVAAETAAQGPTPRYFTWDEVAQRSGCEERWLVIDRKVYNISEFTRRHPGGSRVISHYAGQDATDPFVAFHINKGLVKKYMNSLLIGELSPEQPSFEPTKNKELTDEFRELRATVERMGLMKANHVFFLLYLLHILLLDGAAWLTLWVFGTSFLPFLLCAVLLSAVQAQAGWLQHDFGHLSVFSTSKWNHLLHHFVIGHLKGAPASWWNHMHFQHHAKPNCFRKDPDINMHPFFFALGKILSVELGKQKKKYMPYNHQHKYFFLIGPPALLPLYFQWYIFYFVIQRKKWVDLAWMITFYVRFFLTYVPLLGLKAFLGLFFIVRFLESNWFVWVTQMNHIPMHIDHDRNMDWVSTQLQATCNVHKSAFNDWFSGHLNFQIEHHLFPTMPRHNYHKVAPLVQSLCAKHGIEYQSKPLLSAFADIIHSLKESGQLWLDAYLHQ
T2 sequence (Q920R3 whole entry): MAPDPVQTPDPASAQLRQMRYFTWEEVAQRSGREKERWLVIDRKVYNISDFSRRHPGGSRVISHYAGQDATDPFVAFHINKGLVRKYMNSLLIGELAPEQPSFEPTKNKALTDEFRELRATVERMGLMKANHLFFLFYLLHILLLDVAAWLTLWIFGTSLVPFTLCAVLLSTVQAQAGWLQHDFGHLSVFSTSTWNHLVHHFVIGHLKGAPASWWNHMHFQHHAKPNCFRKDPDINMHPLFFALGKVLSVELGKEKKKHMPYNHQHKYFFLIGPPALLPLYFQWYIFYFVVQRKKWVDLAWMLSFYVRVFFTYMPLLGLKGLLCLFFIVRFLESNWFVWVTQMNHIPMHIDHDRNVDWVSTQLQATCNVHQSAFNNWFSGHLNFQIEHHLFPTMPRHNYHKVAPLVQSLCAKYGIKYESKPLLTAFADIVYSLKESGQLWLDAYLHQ

| SMILES | inhibition at 1 µM (delta-5-desaturase [1]) | inhibition at 10 µM (delta-5-desaturase [2]) | inhibition at 10 µM (delta-5-desaturase [3]) |
| --- | --- | --- | --- |
| COCCOc1nccc2c(=O)n(-c3ccc(OCC(F)(F)F)cc3)c(OCCOC)nc12 [Example 35, 2,8-bis(2-methoxyethoxy)-3-[4-(2,2,2-trifluoroethoxy)phenyl]pyrido[3,4-d]pyrimidin-4(3H)-one] | 91% | 91% | 89% |
| CCSc1nc2c(c(=O)n1-c1ccc(OCC(F)(F)F)cc1)CCNC2=O [Example 28, 2-(ethylsulfanyl)-3-[4-(2,2,2-trifluoroethoxy)phenyl]-3,5,6,7-tetrahydropyrido[3,4-d]pyrimidine-4,8-dione] | 89% | 92% | 92% |
| CCCSc1nc2c(=O)[nH]ccc2c(=O)n1-c1ccc(OCC(F)(F)F)cc1 [Example 30, 2-(propylsulfanyl)-3-[4-(2,2,2-trifluoroethoxy)phenyl]-3,7-dihydropyrido[3,4-d]pyrimidine-4,8-dione] | 96% | 97% | 97% |
| CCOc1nc2c(OCCOC)nccc2c(=O)n1-c1ccc(OCC(F)(F)F)cc1 [Example 34, 2-ethoxy-8-(2-methoxyethoxy)-3-[4-(2,2,2-trifluoroethoxy)phenyl]pyrido[3,4-d]pyrimidin-4(3H)-one] | 93% | 98% | 88% |
| CCSc1nc2c(c(=O)n1-c1ccc(OCC(F)(F)F)cc1)CCC(=O)N2 [Example 24, 2-(ethylsulfanyl)-3-[4-(2,2,2-trifluoroethoxy)phenyl]-5,6-dihydropyrido[2,3-d]pyrimidine-4,7(3H,8H)-dione] | 109% | 101% | 95% |
| CCSc1nc2c(c(=O)n1-c1ccc(OCC(F)(F)F)cc1)SCC(=O)N2 [Example 25, 2-(ethylsulfanyl)-3-[4-(2,2,2-trifluoroethoxy)phenyl]-3H-pyrimido[5,4-b][1,4]thiazine-4,7(6H,8H)-dione] | 92% | 98% | 98% |
| CCSc1nc2c(ccc(=O)n2C)c(=O)n1-c1ccc(OCC(F)(F)F)cc1 [Example 8, 2-(ethylsulfanyl)-8-methyl-3-[4-(2,2,2-trifluoroethoxy)phenyl]pyrido[2,3-d]pyrimidine-4,7(3H,8H)-dione] | 103% | 99% | 96% |
| COc1ccc2c(=O)n(-c3ccc(OCC(F)(F)F)cc3)c(OCC(F)(F)F)nc2n1 [Example 5, 7-methoxy-2-(2,2,2-trifluoroethoxy)-3-[4-(2,2,2-trifluoroethoxy)phenyl]pyrido[2,3-d]pyrimidin-4(3H)-one] | 95% | 101% | 93% |
| CCSc1nc2c(=O)n(C)ccc2c(=O)n1-c1ccc(OCC(F)(F)F)cc1 [Example 36, 2-(ethylsulfanyl)-7-methyl-3-[4-(2,2,2-trifluoroethoxy)phenyl]-3,7-dihydropyrido[3,4-d]pyrimidine-4,8-dione] | 92% | 101% | 101% |
| CCSc1nc2[nH]c(=O)cnc2c(=O)n1-c1ccc(OCC(F)(F)F)cc1 [Example 38, 2-(ethylsulfanyl)-3-[4-(2,2,2-trifluoroethoxy)phenyl]pteridine-4,7(3H,8H)-dione] | 76% | 95% | 91% |
| CCSc1nc2nc(OC)cnc2c(=O)n1-c1ccc(OCC(F)(F)F)cc1 [Example 37, 2-(ethylsulfanyl)-7-methoxy-3-[4-(2,2,2-trifluoroethoxy)phenyl]pteridin-4(3H)-one] | 93% | 99% | 97% |
| CCSc1nc2nc(C(N)=O)ccc2c(=O)n1-c1ccc(OCC(F)(F)F)cc1 [Example 27, 2-(ethylsulfanyl)-4-oxo-3-[4-(2,2,2-trifluoroethoxy)phenyl]-3,4-dihydropyrido[2,3-d]pyrimidine-7-carboxamide] | 98% | 97% | 93% |
| CCSc1nc2nc(N)ccc2c(=O)n1-c1ccc(OCC(F)(F)F)cc1 [Example 26, 7-amino-2-(ethylsulfanyl)-3-[4-(2,2,2-trifluoroethoxy)phenyl]pyrido[2,3-d]pyrimidin-4(3H)-one] | 107% | 102% | 96% |

Continued, values first:

| inhibition at 1 µM (delta-5-desaturase [1]) | inhibition at 10 µM (delta-5-desaturase [2]) | inhibition at 10 µM (delta-5-desaturase [3]) | SMILES |
| --- | --- | --- | --- |
| 101% | 99% | 97% | CCSc1nc2[nH]c(=O)ccc2c(=O)n1-c1ccc(OCC(F)(F)F)cc1 [Example 6, 2-(ethylsulfanyl)-3-[4-(2,2,2-trifluoroethoxy)phenyl]pyrido[2,3-d]pyrimidine-4,7(3H,8H)-dione] |
| 97% | 99% | 96% | CCOc1nc2[nH]c(=O)ccc2c(=O)n1-c1ccc(OCC(F)(F)F)cc1 [Example 9, 2-ethoxy-3-[4-(2,2,2-trifluoroethoxy)phenyl]pyrido[2,3-d]pyrimidine-4,7(3H,8H)-dione] |
| 95% | 92% | 84% | COc1nc2[nH]c(=O)ccc2c(=O)n1-c1ccc(OCC(F)(F)F)cc1 [Example 18, 2-methoxy-3-[4-(2,2,2-trifluoroethoxy)phenyl]pyrido[2,3-d]pyrimidine-4,7(3H,8H)-dione] |
| 97% | 104% | 97% | CC(C)Oc1nc2[nH]c(=O)ccc2c(=O)n1-c1ccc(OCC(F)(F)F)cc1 [Example 20, 2-(1-methylethoxy)-3-[4-(2,2,2-trifluoroethoxy)phenyl]pyrido[2,3-d]pyrimidine-4,7(3H,8H)-dione] |
| 103% | 105% | 99% | O=c1ccc2c(=O)n(-c3ccc(OCC(F)(F)F)cc3)c(OCC(F)(F)CO)nc2[nH]1 [Example 17, 2-(2,2-difluoro-3-hydroxypropoxy)-3-[4-(2,2,2-trifluoroethoxy)phenyl]pyrido[2,3-d]pyrimidine-4,7(3H,8H)-dione] |
| 88% | 96% | 98% | CCOc1nc2c(=O)[nH]ccc2c(=O)n1-c1ccc(OCC(F)(F)F)cc1 [Example 32, 2-ethoxy-3-[4-(2,2,2-trifluoroethoxy)phenyl]-3,7-dihydropyrido[3,4-d]pyrimidine-4,8-dione] |
